Test results published in PubChem BioAssay AID248 (DTP/NCI, 2004).
Values joined by “and” are separate entries in the source; they are usually repeats but may differ in a detail not shown here. Equal entries are not always repeated. Inconclusive results and toxic doses are left out.

Tested on: L1210 leukemia ip in BDF1 mice, survival T/C
Assay: NCI In Vivo Anticancer Drug Screen. Data for tumor model L1210 Leukemia (intraperitoneal) in B6D2F1 (BDF1) mice
Conditions: endpoint: mean survival time, higher = longer survival
In short: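 Tumor was transplanted into mice, which were then dosed with test compound or vehicle alone. Survival was recorded for each group, and the treated figure was expressed relative to the control figure.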

[1] = dose: 50.0 mg/kg/injection, schedule: Q01DX001 (ip), vehicle: saline
[2] = dose: 100.0 mg/kg/injection, schedule: Q01DX001 (ip), vehicle: saline
[3] = dose: 200.0 mg/kg/injection, schedule: Q01DX001 (ip), vehicle: saline
[4] = dose: 400.0 mg/kg/injection, schedule: Q01DX001 (ip), vehicle: saline
[5] = dose: 400.0 mg/kg/injection, schedule: Q04DX002 (ip), vehicle: saline with Tween-80
[6] = dose: 100.0 mg/kg/injection, schedule: Q01DX009 (ip), vehicle: saline with Tween-80
[7] = dose: 200.0 mg/kg/injection, schedule: Q01DX009 (ip), vehicle: saline with Tween-80
[8] = dose: 400.0 mg/kg/injection, schedule: Q01DX009 (ip), vehicle: saline with Tween-80
[9] = dose: 10.0 mg/kg/injection, schedule: Q01DX001 (ip), vehicle: saline
[10] = dose: 100.0 mg/kg/injection, schedule: Q01DX001 (ip), vehicle: carboxymethylcellulose (CMC)
[11] = dose: 200.0 mg/kg/injection, schedule: Q01DX001 (ip), vehicle: carboxymethylcellulose (CMC)
[12] = dose: 400.0 mg/kg/injection, schedule: Q01DX001 (ip), vehicle: carboxymethylcellulose (CMC)
[13] = dose: 100.0 mg/kg/injection, schedule: Q04DX003 (ip), vehicle: Klucel (hydroxypropylcellulose) (HPC)
[14] = dose: 200.0 mg/kg/injection, schedule: Q04DX003 (ip), vehicle: Klucel (hydroxypropylcellulose) (HPC)

## Cc1cc2nc3[nH]c4ccccc4c3nc2cc1C
dose: 12.5 mg/kg/injection, schedule: Q01DX015 (ip), vehicle: saline
  T/C: 98 % of control
dose: 25.0 mg/kg/injection, schedule: Q01DX015 (ip), vehicle: saline
  T/C: 87 % of control
[1]
  T/C: 91 % of control
dose: 50.0 mg/kg/injection, schedule: Q01DX015 (ip), vehicle: saline
  T/C: 115 % of control
[2]
  T/C: 94 % of control
dose: 100.0 mg/kg/injection, schedule: Q01DX015 (ip), vehicle: saline
  T/C: 120 % of control
[3]
  T/C: 91 % of control
dose: 200.0 mg/kg/injection, schedule: Q01DX015 (ip), vehicle: saline
  T/C: 108 % of control and 90 % of control
[4]
  T/C: 97 % of control
dose: 400.0 mg/kg/injection, schedule: Q01DX015 (ip), vehicle: saline
  T/C: 104 % of control
dose: 800.0 mg/kg/injection, schedule: Q01DX001 (ip), vehicle: saline
  T/C: 103 % of control
dose: 800.0 mg/kg/injection, schedule: Q01DX015 (ip), vehicle: saline
  T/C: 87 % of control

## CCCC(=O)OCC(=O)c1ccc(-c2ccccc2)cc1
[2]
  T/C: 96 % of control
[3]
  T/C: 94 % of control
[4]
  T/C: 94 % of control

## CCCCC(CC)CN(CCOc1nc(OCCN(CC(CC)CCCC)CC(CC)CCCC)nc(OCCN(CC(CC)CCCC)CC(CC)CCCC)n1)CC(CC)CCCC (stereo not given)
dose: 25.6 mg/kg/injection, schedule: Q04DX002 (ip), vehicle: saline with Tween-80
  T/C: 102 % of control
dose: 64.0 mg/kg/injection, schedule: Q04DX002 (ip), vehicle: saline with Tween-80
  T/C: 94 % of control
dose: 160.0 mg/kg/injection, schedule: Q04DX002 (ip), vehicle: saline with Tween-80
  T/C: 97 % of control
[5]
  T/C: 94 % of control

## COc1ccc(-c2nc(-c3cccc(O)c3)[nH]c2-c2ccc(OC)cc2)cc1
[6]
  T/C: 93 % of control
[7]
  T/C: 98 % of control
[8]
  T/C: 105 % of control

## Nc1nc(N)c2cc(N(CCO)CCO)ccc2n1
[1]
  T/C: 101 % of control
[2]
  T/C: 95 % of control
[3]
  T/C: 95 % of control

## CCCCCCCCCCCCCCCCCCNC1=C(Cl)C(=O)C(NCCCCCCCCCCCCCCCCCC)=C(Cl)C1=O
dose: 50.0 mg/kg/injection, schedule: Q01DX001 (ip), vehicle: carboxymethylcellulose (CMC)
  T/C: 100 % of control

## CCC(C)CC(C)c1ccncc1 (stereo not given)
dose: 5.0 mg/kg/injection, schedule: Q01DX001 (ip), vehicle: saline
  T/C: 97 % of control
[9]
  T/C: 100 % of control
dose: 20.0 mg/kg/injection, schedule: Q01DX001 (ip), vehicle: saline
  T/C: 100 % of control
dose: 40.0 mg/kg/injection, schedule: Q01DX001 (ip), vehicle: saline
  T/C: 97 % of control
dose: 80.0 mg/kg/injection, schedule: Q01DX001 (ip), vehicle: saline
  T/C: 97 % of control
[2]
  T/C: 97 % of control

## O=C(CCl)Nc1ccc(CCN2C(=O)CC(c3ccccc3)C2=O)cc1 (stereo not given)
dose: 100.0 mg/kg/injection, schedule: Q04DX002 (ip), vehicle: saline with Tween-80
  T/C: 93 % of control
dose: 200.0 mg/kg/injection, schedule: Q04DX002 (ip), vehicle: saline with Tween-80
  T/C: 97 % of control
[5]
  T/C: 89 % of control

## O=c1c(Cl)c(C(Cl)(Cl)Cl)[nH]c2ccc([N+](=O)[O-])cc12
dose: 25.0 mg/kg/injection, schedule: Q01DX001 (ip), vehicle: saline with Tween-80
  T/C: 101 % of control
dose: 50.0 mg/kg/injection, schedule: Q01DX001 (ip), vehicle: saline with Tween-80
  T/C: 101 % of control

## Cc1cc(N(CCCl)CCCl)ccc1C=Nc1ccc(-c2nc(Cc3ccccc3)sc2C)cc1
[10]
  T/C: 117 % of control
[11]
  T/C: 98 % of control
[12]
  T/C: 110 % of control

## O=C(N/N=C/c1ccc2c(c1)OCO2)c1ccco1
dose: 100.0 mg/kg/injection, schedule: Q01DX001 (ip), vehicle: other
  T/C: 96 % of control
dose: 200.0 mg/kg/injection, schedule: Q01DX001 (ip), vehicle: other
  T/C: 93 % of control
dose: 400.0 mg/kg/injection, schedule: Q01DX001 (ip), vehicle: other
  T/C: 98 % of control

## Cc1ccccc1C(=O)NCC(=O)O
[6]
  T/C: 91 % of control
dose: 100.0 mg/kg/injection, schedule: Q04DX003 (ip), vehicle: saline with Tween-80
  T/C: 95 % of control
[7]
  T/C: 91 % of control
dose: 200.0 mg/kg/injection, schedule: Q04DX003 (ip), vehicle: saline with Tween-80
  T/C: 94 % of control
[8]
  T/C: 86 % of control
dose: 400.0 mg/kg/injection, schedule: Q04DX003 (ip), vehicle: saline with Tween-80
  T/C: 98 % of control

## O=C(Nc1ccccc1F)c1ccco1
dose: 100.0 mg/kg/injection, schedule: Q01DX009 (ip), vehicle: Klucel (hydroxypropylcellulose) (HPC)
  T/C: 100 % of control
dose: 200.0 mg/kg/injection, schedule: Q01DX009 (ip), vehicle: Klucel (hydroxypropylcellulose) (HPC)
  T/C: 103 % of control

## O=C(CNC(=O)Nc1ccc(Cl)c(Cl)c1)N/N=C/c1cccc(F)c1
dose: 50.0 mg/kg/injection, schedule: Q01DX009 (ip), vehicle: saline with Tween-80
  T/C: 96 % of control
[6]
  T/C: 93 % of control
[7]
  T/C: 89 % of control

## Cc1ccc(C(CO)(CO)OC(CO)(CO)c2ccc(C)c(C)c2)cc1C
[1]
  T/C: 105 % of control
[2]
  T/C: 97 % of control
[3]
  T/C: 105 % of control
[4]
  T/C: 105 % of control

## CNC1=C(N2CC2C)C(=O)C(NC)=C(N2CC2C)C1=O (stereo not given)
dose: 0.31 mg/kg/injection, schedule: Q01DX009 (ip), vehicle: saline
  T/C: 104 % of control and 108 % of control
dose: 0.62 mg/kg/injection, schedule: Q01DX009 (ip), vehicle: saline
  T/C: 104 % of control
dose: 1.25 mg/kg/injection, schedule: Q01DX009 (ip), vehicle: saline
  T/C: 114 % of control and 116 % of control
dose: 1.56 mg/kg/injection, schedule: Q04DX003 (ip), vehicle: saline
  T/C: 101 % of control
dose: 2.5 mg/kg/injection, schedule: Q01DX009 (ip), vehicle: saline
  T/C: 116 % of control
dose: 3.12 mg/kg/injection, schedule: Q04DX003 (ip), vehicle: saline
  T/C: 98 % of control and 111 % of control and 115 % of control
dose: 5.0 mg/kg/injection, schedule: Q01DX009 (ip), vehicle: saline
  T/C: 169 % of control
dose: 6.25 mg/kg/injection, schedule: Q04DX003 (ip), vehicle: saline
  T/C: 109 % of control and 123 % of control
[9]
  T/C: 96 % of control
dose: 10.0 mg/kg/injection, schedule: Q01DX009 (ip), vehicle: saline
  T/C: 94 % of control and 119 % of control
dose: 12.0 mg/kg/injection, schedule: Q04DX003 (ip), vehicle: saline
  T/C: 152 % of control
dose: 12.5 mg/kg/injection, schedule: Q04DX003 (ip), vehicle: saline
  T/C: 152 % of control and 193 % of control
dose: 25.0 mg/kg/injection, schedule: Q04DX003 (ip), vehicle: saline
  T/C: 96 % of control and 118 % of control
dose: 50.0 mg/kg/injection, schedule: Q04DX003 (ip), vehicle: saline
  T/C: 98 % of control and 89 % of control

## O=C1NC(CCl)(CCl)CO1
dose: 0.5 mg/kg/injection, schedule: Q01DX001 (ip), vehicle: saline
  T/C: 94 % of control
dose: 1.0 mg/kg/injection, schedule: Q01DX001 (ip), vehicle: saline
  T/C: 94 % of control
dose: 2.0 mg/kg/injection, schedule: Q01DX001 (ip), vehicle: saline
  T/C: 105 % of control

## O=C(O)CCC(NC(=O)/C=C/c1ccc([N+](=O)[O-])cc1)C(=O)O (stereo not given)
dose: 100.0 mg/kg/injection, schedule: Q04DX002 (ip), vehicle: Klucel (hydroxypropylcellulose) (HPC)
  T/C: 107 % of control
dose: 200.0 mg/kg/injection, schedule: Q04DX002 (ip), vehicle: Klucel (hydroxypropylcellulose) (HPC)
  T/C: 88 % of control
dose: 400.0 mg/kg/injection, schedule: Q04DX002 (ip), vehicle: Klucel (hydroxypropylcellulose) (HPC)
  T/C: 91 % of control

## CC(=O)Cc1cc(C)c(C(C)=O)c(O)c1C(C)=O
[13]
  T/C: 103 % of control
[14]
  T/C: 108 % of control
dose: 400.0 mg/kg/injection, schedule: Q04DX003 (ip), vehicle: Klucel (hydroxypropylcellulose) (HPC)
  T/C: 105 % of control

## COc1ccc2nc(N=Nc3c(N)nc(N)[nH]c3=O)sc2c1
dose: 50.0 mg/kg/injection, schedule: Q04DX003 (ip), vehicle: Klucel (hydroxypropylcellulose) (HPC)
  T/C: 102 % of control
[10]
  T/C: 106 % of control
[13]
  T/C: 104 % of control
[11]
  T/C: 106 % of control
[14]
  T/C: 101 % of control
[12]
  T/C: 101 % of control

## O=C(NCCCCCCNC(=O)N(Cc1ccccc1)Cc1ccccc1)N(Cc1ccccc1)Cc1ccccc1
dose: 100.0 mg/kg/injection, schedule: Q04DX002 (ip), vehicle: saline
  T/C: 105 % of control
dose: 200.0 mg/kg/injection, schedule: Q04DX002 (ip), vehicle: saline
  T/C: 97 % of control
dose: 400.0 mg/kg/injection, schedule: Q04DX002 (ip), vehicle: saline
  T/C: 108 % of control
